# Measurements reported in patent publication US12377117B2, “Hyaluronic acid nanoparticles comprising NADPH oxidases inhibitors and uses in treating cancer” (priority 2019, dated 2025).
# Several values for one entry are separate records, joined by “and”; a condition that tells them apart may be missing. Identical values can stand only once. Entries after “also recorded” stand apart in the source; their conditions may differ.
# Tests used:
# [1] = tested on: Breast patient VII PDX tumors; assay: Breast patient VII PDX model, combination with DOX; type: in vivo, nude mice
# Experimental: Nude mice bearing orthotopic the Breast patient VII PDX tumors received 5 mg/kg equivalent dose of GKT831 or HANP/GKT831 combined with 5 mg/kg of DOX via the tail vein once a week for 5 administrations.
# Therapy resistant breast cancer PDX models were established in nude mice from surgically resected tumor tissues of both hormonal receptor positive (HR+) and triple negative breast cancer patients. Patient VII PDX model was derived tumor from HR+ breast cancer tissue that progressed after neoadjuvant therapy with Dox+ Taxol and adjuvant radiotherapy (50 Gy). Patient IX PDX model was derived from a breast cancer tissue that was resistant to Dox/cyclophosphamide/Taxol therapy and 50 Gy of pre-operative radiation therapy. Both patients developed recurrent tumors and deceased 23 and 25 months after surgery. […] CD44 is the cellular receptor for HA and therefore, HANP can target to CD44+ tumor and stromal cells. […] The targeted delivery of near-infrared (NIR) 830 dye labeled HANPs in the breast cancer PDX models were examined using optical imaging and histological analysis. […] Accumulation of HANPs in the liver was further examined.
# The inhibition of NOX1/4 on tumor growth and sensitization of therapeutic responses to a chemotherapy drug, DOX, were examined in the breast Patient VII and Patient IX PDX models growing in the mammary fat pad of nude mice.
# [2] = tested on: Breast patient IX PDX tumors; assay: Breast patient IX PDX model, combination with Dox; type: in vivo, nude mice
# [3] = tested on: human breast cancer MCF-7 cells; assay: Cell proliferation assay on MCF-7 cells; type: cell-based; settings: MCF7, read-out: IC50, growth inhibition
# [4] = tested on: Breast patient VII PDX tumors; assay: RNAseq gene expression profiles of PDX tumors after five i.v. treatments; type: in vivo, nude mice
# Experimental: ATFB was increased by HANP/GKT831 but decrease in GKT831 treated tumor.
# Biomaterial low molecular weight HA generated nanoparticle drug carrier has unique biological activities compared with other nanoparticle drug carriers. […] To understand molecular mechanisms by which HANP/GKT831 enhanced responses to DNA damaging drug and radiation, gene expression profiles of the breast patient VII PDX tumors following five i.v. treatments were analyzed using RNAseq assay. […] Since human immune cells express NOX2 subtype, HANP/GKT831 treatment may not affect tumor immune responses but GKT831 treatment may decrease immune responses in tumors. Furthermore, HANP/GKT831 inhibited the expression of mitochondrial electron transport and ATP production genes, which promote tumor cell death (FIG. 7B). […] Therefore, it is likely that those differences in gene regulation contributed to a strong chemo- and radiotherapy enhancement effect of HANP/GKT831.
# [5] = tested on: ROS generation in MCF-7 cells (NOX1/4 activity); assay: ROS production in MCF-7 cells (DCFDA assay); type: cell-based, human
IC50 [3],SMILES,increase in tumor volume compared the starting tumor volume ([1]; 5 mg/kg i.v. weekly x5),tumor growth inhibition compared to no treatment control ([1]; single agent treatment),effect on tumor growth [2],anti-tumor effect / tumor growth inhibition [1],ATFB expression ([4]; PDX tumors (FIG. 7B)),expression of mitochondrial electron transport and ATP production genes ([4]; PDX tumors (FIG. 7B)),"expression of mitochondrial electron transport and ATP production genes ([4]; PDX tumors (FIG. 7B), listed as GKT 831)",NOX2 gene expression ([4]; patient VII PDX tumors),level of NOX4 gene expression ([4]; patient VII PDX tumors),ROS generation [5]
,"COc1cccc2c1C(=O)c1c(O)c3c(c(O)c1C2=O)C[C@@](O)(C(=O)CO)C[C@@H]3O[C@H]1C[C@H](N)[C@H](O)[C@H](C)O1 [DOX, doxorubicin]",150%,~40% and 60%,,,,,,,,
30 µM,"CN(C)c1cccc(-c2c3c(=O)n(-c4ccccc4Cl)[nH]c3cc(=O)n2C)c1 [GKT831, 2-(2-chlorophenyl)-4-(3-(dimethylamino)phenyl)-5-methyl-1,2-dihydro-3H-pyrazolo[4,3-c]pyridine-3,6(5H)-dione]",,,did not show a significant difference; also recorded: did not show any effect on tumor growth,did not show a significant difference,decrease,increased MT-ND and MT-CO2 expression,upregulated the expression of some of those genes,downregulated,did not significantly affect,did not show obvious ROS reduction
